Read-outs that look alike come from different tables or passages of the source.
Assays:
[1] = Cytotoxicity in mock-infected MT-4 cells (MTT); assay type: cell-based; conditions: human, 50% cytotoxic concentration
Protocol: (§1) A rapid and automated assay procedure was used for the in vitro evaluation of anti-HIV agents. An HTLV-1 transformed T4-cell line MT-4, which was previously shown to be highly susceptible to and permissive for HIV infection, served as the target cell line. Inhibition of the HIV-induced cytopathogenic effect was used as the end point. The viabitlity of both HIV- and mock-infected cells was assessed spectrophotometrically via in situ reduction of 3-(4,5-dimethylthiazol-2-yl)-2,5-diphenyltetrazolium bromide (MTT). The 50% cytotoxic concentration (CC50 in μM or μg/ml) was defined as the concentration of compound that reduced the absorbance of the mock-infected control sample by 50%. The percent protection achieved by the compound in HIV-infected cells was calculated by the following formula:
(§2) [formula] whereby (ODT)HIV is the optical density measured with a given concentration of the test compound in HIV-infected cells; (ODC)HIV is the optical density measured for the control untreated HIV-infected cells; (ODC)MOCK is the optical density measured for the control untreated mock-infected cells; all optical density values were determined at 540 nm. The dose achieving 50% protection according to the above formula was defined as the 50% inhibitory concentration (EC50 in μM or μg/ml). The ratio of CC50 to EC50 was defined as the selectivity index (SI). […] Examples of inhibition of cell proliferation by particular compounds of the invention can be found by looking at the respective CC50 values in the MT-4 cell line. Cells:
(§3) MT-4 cells (Miyoshi et al., 1982) were grown and maintained in RPMI 1640 medium supplemented with 10% heat-inactivated fetal calf serum, 2 mM I-glutamine, 0.1% sodium bicarbonate, and 20 μg of gentamicin per ml. Alternatively, the MT-4 cells may also be grown in RPMI 1640 medium supplemented with 10% FCS and 20 μg/ml of gentamicin (RPMI-complete).

[2] = test system: HIV-1 (IIIB), HIV-1 (NL4.3); test: microbe, parasite or virus in culture; assay type: cell-based; conditions: for EC50: Human immunodeficiency virus 1, IIIB, MT4, MT-4 cells, 50% protection against HIV-induced cytopathogenic effect, MTT; for SI: selectivity index, ratio of CC50 to EC50
Protocol: as §1, §2, §3
The HIV-1 (IIIB) strain (Popovic et al., 1984) as well as the HIV-1 (NL4.3) strain (Adachi et al., J. Virol. 59, 284-291 (1986)) were used.

[3] = target: LEDGF/p75-HIV-1 integrase interaction (Human immunodeficiency virus type 1 group M subtype B (isolate HXB2) (HIV-1), UniProt P04585); test: AlphaScreen assay of LEDGF-integrase interaction inhibition; assay type: binding
Protocol: Alphascreen Assay to Measure the LEDGF-Integrase Interaction Inhibitory Activity of Compounds of the Invention
The AlphaScreen assay was performed according to the manufacturer's protocol (Perkin Elmer, Benelux). Reactions were performed in 25 μl final volume in 384-well Optiwell™ microtiter plates (Perkin Elmer). The reaction buffer contained 25 mM Tris-HCl (pH 7.4), 150 mM NaCl, 1 mM MgCl2, 0.01% (v/v) Tween-20 and 0.1% (w/v) bovine serum albumin. His6-tagged integrase (300 nM final concentration) was incubated with the compounds for 30 min at 4° C. The compounds were added at varying concentrations spanning a wide range from 0.1 up to 100 μM. Afterwards 100 nM flag-LEDGF/p75 was added and incubation was prolonged for an additional hour at 4° C. Subsequently 5 μl of Ni-chelate-coated acceptor beads and 5 μl anti-flag donor beads were added to a final concentration of 20 μg/ml of both beads. Proteins and beads were incubated for 1 h at 30° C. in order to allow association to occur. Exposure of the reaction to direct light was omitted as much as possible and the emission of light from the acceptor beads was measured in the EnVision plate reader (Perkin Elmer, Benelux) and analyzed using the EnVision manager software. IN/DNA binding was analyzed in a similar setting using His6-tagged integrase (1 μM final concentration) and an oligodeoxynucleotide mimicking the IN ELISA oligonucleotide substrate (30 nM final concentration). Counterscreens with JPO2 or PogZ, respectively, were essentially performed as described previously.
His6-tagged HIV-1 integrase, 3xflag-tagged LEDGF/p75, MBP-JPO2 and MBP-PogZ were purified for AlphaScreen applications as described previously 23,25,56.

[4] = His6-tagged integrase 300 nM, flag-LEDGF/p75 100 nM, read-out: Alphascreen IC50

| Structure (SMILES) | CC50 [1] [µM] | EC50 [2] [µM] | IC50 [3, 4] [µM] | SI [2] | IC50 [3] [µM] |
| --- | --- | --- | --- | --- | --- |
| CCCC(C(=O)O)c1c(C)nc2scc(-c3ccccc3)c2c1-c1ccc(C)cc1 (stereo not drawn) [Cpd 143] | 66 | > 66 | 49.2 |  |  |
| CCCC(C(=O)O)c1c(C)nc2sc3c(c2c1-c1cccc(OC)c1)CCCC3 (stereo not drawn) [Cpd 144, 2-[2-Methyl-4-(m-anisyl)-5,6,7,8-tetrahydro[1]benzothieno[2,3-b]pyridin-3-yl]pentanoic acid] | 63 | 20 |  | 3 | 6.64 |
| CCCC(C(=O)O)c1c(C)nc2sc3c(c2c1-c1ccc(OC)c(OC)c1)CCCC3 (stereo not drawn) [Cpd 145, 2-[2-Methyl-4-(3,4-dimethoxyphenyl)-5,6,7,8-tetrahydro[1]benzothieno[2,3-b]pyridin-3-yl]pentanoic acid] | > 125 | 123 | 29.6 | >1 |  |
| CCCC(C(=O)O)c1c(C)nc2sc3c(c2c1-c1ccc2c(c1)OCO2)CCCC3 (stereo not drawn) [Cpd 146, 2-[2-Methyl-4-(benzo[d][1,3]dioxol-5-yl)-5,6,7,8-tetrahydro[1]benzothieno[2,3-b]pyridin-3-yl]pentanoic acid] | 124 | 2.98 | 4.76 | 42 |  |
| Cc1ccc(-c2c(C(CCCC(F)(F)F)C(=O)O)c(C)nc3sc4c(c23)CCCC4)cc1 (stereo not drawn) [Cpd 147, 2-[2-Methyl-4-(p-tolyl)-5,6,7,8-tetrahydro[1]benzothieno[2,3-b]pyridin-3-yl]-6,6,6-trifluorohexanoic acid] | 41.5 | 8.79 | 23.7 | 5 |  |
| CCCC(C(=O)O)c1c(C)nc2sc3c(c2c1-c1ccc(Cl)cc1)CCCC3 (stereo not drawn) [Cpd 148, 2-[2-Methyl-4-(4-chlorophenyl)-5,6,7,8-tetrahydro[1]benzothieno[2,3-b]pyridin-3-yl]pentanoic acid] | 70 | 0.53 | 2.19 | 132 |  |
| CCCC(C(=O)O)c1c(C)nc2sc3c(c2c1-c1ccc(CC)cc1)CCCC3 (stereo not drawn) [Cpd 149, 2-[2-Methyl-4-(4-ethylphenyl)-5,6,7,8-tetrahydro[1]benzothieno[2,3-b]pyridin-3-yl]pentanoic acid] | 67 | > 67 | 74.4 |  |  |
| CCCC(C(=O)O)c1c(C)nc2sc3c(c2c1-c1cccnc1)CCCC3 (stereo not drawn) [Cpd 150, 2-[2-Methyl-4-(pyridin-3-yl)-5,6,7,8-tetrahydro[1]benzothieno[2,3-b]pyridin-3-yl]pentanoic acid] | 38.5 | 0.78 | 1.37 | 49 |  |
| CCCC(C(=O)O)c1c(C)nc2sc3c(c2c1-c1ccc(OC(F)(F)F)cc1)CCCC3 (stereo not drawn) [Cpd 151, 2-[2-Methyl-4-(4-trifluoromethoxyphenyl)-5,6,7,8-tetrahydro[1]benzothieno[2,3-b]pyridin-3-yl]pentanoic acid] | 48 | 8 | 21.5 | 6 |  |
| CCCC(C(=O)O)c1c(C)nc2sc3c(c2c1-c1ccccc1F)CCCC3 (stereo not drawn) [Cpd 153, 2-[2-Methyl-4-(2-fluorophenyl)-5,6,7,8-tetrahydro[1]benzothieno[2,3-b]pyridin-3-yl]pentanoic acid] | > 125 | 17 | 43.6 | >8 |  |
| CCCC(C(=O)O)c1c(C)nc2sc3c(c2c1-c1cc2ccccc2o1)CCCC3 (stereo not drawn) [Cpd 154, 2-[2-Methyl-4-(benzofuran-2-yl)-5,6,7,8-tetrahydro[1]benzothieno[2,3-b]pyridin-3-yl]pentanoic acid] | 90.5 | 6.28 | 8.12 | 14 |  |
| Cc1ccc(-c2c(C(CCc3ccccc3)C(=O)O)c(C)nc3sc4c(c23)CCCC4)cc1 (stereo not drawn) [Cpd 155, 2-[2-Methyl-4-(p-tolyl)-5,6,7,8-tetrahydro[1]benzothieno[2,3-b]pyridin-3-yl]-4-phenylbutanoic acid] | 22 | > 22 | 81.9 |  |  |
| Cc1ccc(-c2c(C(C(=O)O)C(C)C)c(C)nc3sc4c(c23)CCCC4)cc1 (stereo not drawn) [Cpd 156, 2-[2-Methyl-4-(p-tolyl)-5,6,7,8-tetrahydro[1]benzothieno[2,3-b]pyridin-3-yl]-3-methylbutanoic acid] | 98 | > 98 | 59.6 |  |  |
| CCC(C)C(C(=O)O)c1c(C)nc2sc3c(c2c1-c1ccc(C)cc1)CCCC3 (stereo not drawn) [Cpd 157, 2-[2-Methyl-4-(p-tolyl)-5,6,7,8-tetrahydro[1]benzothieno[2,3-b]pyridin-3-yl]-3-methylpentanoic acid] | 35 | > 35 | 26.4 |  |  |
| Cc1ccc(-c2c(C(CCC(F)(F)F)C(=O)O)c(C)nc3sc4c(c23)CCCC4)cc1 (stereo not drawn) [Cpd 158, 2-[2-Methyl-4-(p-tolyl)-5,6,7,8-tetrahydro[1]benzothieno[2,3-b]pyridin-3-yl]-5,5,5-trifluoropentanoic acid] | 58.5 | 5.48 | 13.5 | 11 |  |
| C#CCC(C(=O)O)c1c(C)nc2sc3c(c2c1-c1ccc(C)cc1)CCCC3 (stereo not drawn) [Cpd 159, 2-[2-Methyl-4-(p-tolyl)-5,6,7,8-tetrahydro[1]benzothieno[2,3-b]pyridin-3-yl]-pent-4-yn-oic acid] | 99.5 | 7.54 | 13.3 | 13 |  |
| CCCC(C(=O)O)c1c(C)nc2sc3c(c2c1-c1ccc(C)cc1OC)CCCC3 (stereo not drawn) [Cpd 160, 2-[2-methyl-4-(2-methoxy-4-methylphenyl)-5,6,7,8-tetrahydro[1]benzothieno[2,3-b]pyridin-3-yl]pentanoic acid] | 74 | 14.4 | 17.7 | 5 |  |
| CCCC(C(=O)O)c1c(C)nc2sc3c(c2c1-c1ccc(C)cc1O)CCCC3.N (stereo not drawn) [Cpd 161, 2-[2-Methyl-4-(2-hydroxy-4-methylphenyl)-5,6,7,8-tetrahydro[1]benzothieno[2,3-b]pyridin-3-yl]pentanoate ammonium salt] | 157 | 0.147 |  | 1061 | 0.0554 |
| Cc1ccc(-c2c(C(CC(C)(C)C)C(=O)O)c(C)nc3sc4c(c23)CCCC4)cc1 (stereo not drawn) [Cpd 162, 2-[2-Methyl-4-(p-tolyl)-5,6,7,8-tetrahydro[1]benzothieno[2,3-b]pyridin-3-yl]-4,4-dimethylpentanoic acid] | 71.7 | 0.33 | 1.57 | 217 |  |
| CCCC(C(=O)O)c1c(C)nc2sc3c(c2c1-c1ccc(C)cc1)CCN(Cc1ccccc1)C3 (stereo not drawn) [Cpd 163, 2-[7-Benzyl-2-methyl-4-(p-tolyl)-5,6,7,8-tetrahydro-9-thia-1,7-diaza-fluoren-3-yl]pentanoic acid] | 23 | > 23 | 4.5 |  |  |
| Cc1ccc(-c2c(C(CC3CC3)C(=O)O)c(C)nc3sc4c(c23)CCCC4)cc1 (stereo not drawn) [Cpd 165, 2-[2-Methyl-4-(p-tolyl)-5,6,7,8-tetrahydro[1]benzothieno[2,3-b]pyridin-3-yl]-3-cyclopropylpropanoic acid] | 89 | 0.867 | < 1 | 102 |  |
| CCCC(C(=O)NC#N)c1c(C)nc2sc3c(c2c1-c1ccc(C)cc1)CCCC3 (stereo not drawn) [Cpd 166, N-cyano-2-[2-Methyl-4-p-tolyl-5,6,7,8-tetrahydro[1]benzothieno[2,3-b]pyridin-3-yl]pentanamide] | 131 | > 131 | 3 |  |  |
